Experimental data from BindingDB's records for doi:10.1080/14756360310001612211 (Kobe Gakuin University, 2003).
“And” between values parts separate entries of the source, which are not always exact repeats. Identical values can stand only once.

Molecular target: Proto-oncogene tyrosine-protein kinase Src (Gallus gallus, UniProt P00523)
Assay: Tyrosine Kinase Assay
Conditions: 37 °C
Description: Takara Universal Tyrosine Assay Kit (Takara-bio co) was used to test the synthesized compounds. This assay kit determines the inhibition activities of inhibitors against a substrate of tyrosine kinase.

IC50 | Compound
830 µM and > 500 µM | O=C(OCCN(N1CCCCC1)N1CCCCC1)c1cc2ccccc2[nH]1 [Indole ester derivative, 27]
> 1000 µM and 817 µM | CCN(CC)CCOC(=O)c1cc2ccccc2n1-c1ccccc1 [Indole ester derivative, 18]
> 1000 µM | CC(CN(C)C)OC(=O)c1cc2ccccc2n1Cc1ccccc1 (stereo not drawn) [Indole ester derivative, 10]
> 1000 µM and 215 µM | O=C(OCCN(n1cccc1)n1cccc1)c1cc2ccccc2n1Cc1ccccc1 [Indole ester derivative, 8]
> 1000 µM | CCN(CC)CCOC(=O)c1cc2ccccc2[nH]1 [Indole ester derivative, 23]
> 1000 µM | CN(C)CCOC(=O)c1cc2ccccc2n1-c1ccccc1 [Indole ester derivative, 17]
306 µM and > 1000 µM and 279 µM | O=C(OCCN(N1CCCCC1)N1CCCCC1)c1cc2ccccc2n1-c1ccccc1 [Indole ester derivative, 16]
> 500 µM | CC(CN(C)C)OC(=O)c1cc2ccccc2[nH]1 (stereo not drawn) [Indole ester derivative, 26]
21.4 µM | O=C(OCCN(n1cccc1)n1cccc1)c1cc2ccccc2[nH]1 [Indole ester derivative, 24]
> 1000 µM and 614 µM | CCN(CC)CCOC(=O)c1cc2ccccc2n1Cc1ccccc1 [Indole ester derivative, 7]
> 500 µM and 631 µM | CN(C)CCOC(=O)c1cc2ccccc2n1Cc1ccccc1 [Indole ester derivative, 6]
258 µM and > 1000 µM | O=C(OCCN(n1cccc1)n1cccc1)c1cc2ccccc2n1-c1ccccc1 [Indole ester derivative, 19]
> 1000 µM | CC(CN(C)C)OC(=O)c1cc2ccccc2n1-c1ccccc1 (stereo not drawn) [Indole ester derivative, 21]
